# According to patent US12102637B2, “Pharmaceutical formulations for treating endometriosis, uterine fibroids, polycystic ovary syndrome or adenomyosis” (AbbVie Inc., priority 2017, dated 2024):
# Assay: Drug interaction studies: co-administered drug in the presence of elagolix
# Conditions: for direction of the change in AUC of concomitant drug: co-administered with ORILISSA (elagolix)
# [1] = Midazolam 2 mg single dose, elagolix 150 mg once daily × 13 days, N 11
# [2] = Midazolam 2 mg single dose, elagolix 300 mg twice daily × 11 days, N 20
# [3] = Norethindrone 0.35 mg once daily × 112 days, elagolix 150 mg once daily × 56 days, N 32
# [4] = Digoxin 0.5 mg single dose, elagolix 200 mg twice daily × 10 days, N 11
# [5] = Ethinyl estradiol 35 mcg and triphasic norgestimate 0.18/0.215/0.25 mg once daily, elagolix 150 mg once daily, N 21
# [6] = Rosuvastatin 20 mg once daily, elagolix 300 mg twice daily × 7 days, N 10
# Description: Drug interaction studies were performed with elagolix and other drugs that are likely to be co-administered and with drugs commonly used as probes for pharmacokinetic interactions.
structure (smiles),measurement,setting,value
Cc1ncc2n1-c1ccc(Cl)cc1C(c1ccccc1F)=NC2 [Midazolam],AUC Ratio (with elagolix vs medication alone),[1],0.65
same,Cmax Ratio (with elagolix vs medication alone),[1],0.81
same,AUC Ratio (with elagolix vs medication alone),[2],0.46
same,Cmax Ratio (with elagolix vs medication alone),[2],0.56
same,direction of the change in AUC of concomitant drug,,↓ midazolam
C#C[C@]1(O)CC[C@H]2[C@@H]3CCC4=CC(=O)CC[C@@H]4[C@H]3CC[C@@]21C [Norethindrone],AUC Ratio (with elagolix vs medication alone),[3],0.88
same,Cmax Ratio (with elagolix vs medication alone),[3],0.95
C[C@H]1O[C@@H](O[C@H]2[C@@H](O)C[C@H](O[C@H]3[C@@H](O)C[C@H](O[C@H]4CC[C@@]5(C)[C@H](CC[C@@H]6[C@@H]5C[C@@H](O)[C@]5(C)[C@@H](C7=CC(=O)OC7)CC[C@]65O)C4)O[C@@H]3C)O[C@@H]2C)C[C@H](O)[C@@H]1O [Digoxin],AUC Ratio (with elagolix vs medication alone),[4],1.26
same,Cmax Ratio (with elagolix vs medication alone),[4],1.71
same,direction of the change in AUC of concomitant drug,,↑ digoxin
C#C[C@]1(O)CC[C@H]2[C@@H]3CCc4cc(O)ccc4[C@H]3CC[C@@]21C [Ethinyl Estradiol],AUC Ratio (with elagolix vs medication alone),[5],1.30
same,Cmax Ratio (with elagolix vs medication alone),[5],1.15
C#C[C@]1(O)CC[C@H]2[C@@H]3CCC4=CC(=NO)CC[C@@H]4[C@H]3CC[C@@]21CC (mixture of isomers) [Norelgestromin],AUC Ratio (with elagolix vs medication alone),[5],0.85
same,Cmax Ratio (with elagolix vs medication alone),[5],0.87
CC(C)c1nc(N(C)S(C)(=O)=O)nc(-c2ccc(F)cc2)c1/C=C/[C@@H](O)C[C@@H](O)CC(=O)O [Rosuvastatin],AUC Ratio (with elagolix vs medication alone),[6],0.60
same,Cmax Ratio (with elagolix vs medication alone),[6],0.99
same,direction of the change in AUC of concomitant drug,,↓ rosuvastatin
C#CC1(O)CC[C@H]2[C@@H]3CCC4=CC(=O)CC[C@@H]4[C@H]3CC[C@@]21CC (mixture of isomers) [Norgestrel],AUC Ratio (with elagolix vs medication alone),[5],0.92
same,Cmax Ratio (with elagolix vs medication alone),[5],0.89
